The subject of one test is S123ACT. Kind of test: Detection of in vitro enzyme activity of 23ACT (LC-MS of reaction product). The class given is biochemical, S. lycopersicum. The conditions noted are these: 50 μM substrate, crude extraction fraction of E. coli expressing S123ACT, 400 μM acetyl CoA, pH 7.2. The procedure:
(§1) First, in order to synthesize 23ACT in vitro, the S123ACT gene and the Sc23ACT gene were each linked to a pCold ProS2 (manufactured by Takara Bio Inc.), and were introduced into E. coli BL21 (DE3). The obtained recombinant E. coli was cultured at 37° C. until the OD600 value reached 0.5, was cooled to 15° C., and was left to stand for 30 minutes. IPTG was added thereto so that the final concentration reached 0.1 mM, and the mixture was cultured under shaking at 15° C. for 24 hours, to induce expression of the recombinant protein. Then, the E. coli bodies whose expression was induced were collected, and were suspended in a sonication buffer [50 mM Bis-Tris-HCl (pH 7.0), 150 mM NaCl, 1 mM dithiothreitol, 10% glycerol]. After an ultrasonic crushing machine was used to crush bacterial cells, the mixture was subjected to centrifugal separation, and crude extraction fractions were obtained from the supernatant. A 100 mM Bis-Tris-HCl solution (pH 7.2, containing 400 μM acetyl COA) containing a 50 μM substrate was added to the mixture, and was allowed to react.
(§2) The obtained reaction product was analyzed through LC-MS (manufactured by Waters, product name: UPLC-ESI-MS ACQUITY). As the column, ACQUITY HSS T3 (1.8 μm φ2.1×100 mm) (manufactured by Waters) was used. In LC analysis, gradient elution was performed using a mobile phase (A: 0.1% formic acid water and B: acetonitrile). The gradient elution was performed under the condition: 0 to 30 minutes, 90% A/10% B to 45% A/55% B; 30 to 31 minutes, 45% A/55% B to 100% B; and maintaining for from 31 to 35 minutes, 100% B.

A further test relates to Sc23ACT. The description is as above. The test is classed as biochemical, S. chacoense. Conditions: 50 μM substrate, crude extraction fraction of E. coli expressing Sc23ACT, 400 μM acetyl CoA, pH 7.2. How it is done: as §1, §2
In the next test the test system is S123DOX. Kind of test: Detection of in vitro enzyme activity of 23DOX (LC-MS of reaction product). The conditions noted are these: 50 μM substrate, crude extraction fraction of E. coli expressing S123DOX, 2-oxoglutaric acid, sodium ascorbate, FeSO4, pH 7.2. The test is classed as biochemical, S. lycopersicum. How it is done:
(§3) First, in order to synthesize 23DOX in E. coli, the S123DOX gene and the Sc23DOX gene were each linked to a pCold ProS2 vector (manufactured by Takara Bio Inc.), and were introduced into E. coli BL21 (DE3). The obtained recombinant E. coli was cultured at 37° C. until the OD600 value reached 0.5, was cooled to 15° C., and was left to stand for 30 minutes. IPTG was added thereto so that the final concentration reached 0.1 mM, and the mixture was cultured under shaking at 15° C. for 24 hours, to induce expression of the recombinant protein.
(§4) Then, the E. coli bodies whose expression was induced were collected, and were suspended in a sonication buffer [50 mM Bis-Tris-HCl (pH 7.0), 150 mM NaCl, 1 mM dithiothreitol, 10% glycerol]. After an ultrasonic crushing machine was used to crush bacterial cells, the mixture was subjected to centrifugal separation, and crude extraction fractions were obtained from the supernatant. A 100 mM Bis-Tris-HCl solution (pH 7.2, containing 5 mM 2-oxoglutaric acid, 10 mM sodium ascorbate, and 200 μM FeSO4) containing a 50 μM substrate was added to the mixture, and was allowed to react.
(§5) The obtained reaction product was analyzed through LC-MS (manufactured by Waters, product name: UPLC-ESI-MS ACQUITY). As the column, ACQUITY HSS T3 1.8 μm φ 2.1×100 mm (manufactured by Waters) was used. […]

The test system of a further test is St23DOX. Briefly: Detection of in vitro enzyme activity of St23DOX (LC-MS of reaction product). The class given is biochemical, S. tuberosum. The conditions noted are these: same method as Example 3, crude extraction fraction of E. coli expressing St23DOX. How it is done: as §3, §4
The obtained reaction product was analyzed through LC-MS (manufactured by Waters, product name: UPLC-ESI-MS ACQUITY). […]
The St23DOX gene identified in Example 10 was analyzed in the same method described in Example 3. […]

In a further test the test system is Sc23DOX. Briefly: Detection of in vitro enzyme activity of 23DOX (LC-MS of reaction product). The class given is biochemical, S. chacoense. Conditions: 50 μM substrate, crude extraction fraction of E. coli expressing Sc23DOX, 2-oxoglutaric acid, sodium ascorbate, FeSO4, pH 7.2. How it is done: as §3, §4, §5
A further test has as its system St23ACT. Kind of test: Detection of in vitro enzyme activity of St23ACT (LC-MS of reaction product). The class given is biochemical, S. tuberosum. The conditions noted are these: same method as Example 4, crude extraction fraction of E. coli expressing St23ACT. The procedure:
as §1
The obtained reaction product was analyzed through LC-MS (manufactured by Waters, product name: UPLC-ESI-MS ACQUITY). As the column, ACQUITY HSS T3 (1.8 μm φ2.1×100 mm) (manufactured by Waters) was used. […]
The St23ACT gene identified in Example 12 was analyzed in the same method described in Example 4. […]

As for `C[C@H]1C[C@H](O)[C@@H]2[C@@H](C)[C@H]3[C@H](C[C@H]4[C@@H]5CC=C6C[C@@H](O[C@@H]7O[C@H](CO)[C@H](O)[C@H](O[C@@H]8O[C@H](CO)[C@@H](O)[C@H](O)[C@H]8O)[C@H]7O[C@@H]7O[C@@H](C)[C@H](O)[C@@H](O)[C@H]7O)CC[C@]6(C)[C@H]5CC[C@]34C)N2C1` [leptinine II, 3β-[(3-O-β-D-glucopyranosyl-2-O-α-L-rhamnopyranosyl-β-D-galactopyranosyl)oxy]solanid-5-en-23β-ol], the “acetylation of the hydroxy group of position 23 of the substrate (reaction product)” value (“acetylation” for short) with S123ACT and in the test on Sc23ACT was “a new reaction product was not obtained” each time.

As to `CC1CC(O)C2C(C)C3C(CC4C5CC=C6CC(OC7OC(CO)C(OC8OC(C)C(O)C(O)C8O)C(O)C7OC7OC(C)C(O)C(O)C7O)CCC6(C)C5CCC43C)N2C1` [leptinine I, 3β-[2-O,4-O-bis(α-L-rhamnopyranosyl)-β-D-glucopyranosyloxy]solanid-5-en-23β-ol], the “acetylation” value in the test on S123ACT and in the test with Sc23ACT was “a new reaction product was not obtained” throughout.

For `C[C@H]1CC[C@]2(NC1)O[C@H]1C[C@H]3[C@@H]4CC[C@H]5C[C@@H](O[C@@H]6O[C@H](CO)[C@H](O[C@@H]7O[C@H](CO)[C@@H](O)[C@H](O[C@@H]8OC[C@@H](O)[C@H](O)[C@H]8O)[C@H]7O[C@@H]7O[C@H](CO)[C@@H](O)[C@H](O)[C@H]7O)[C@H](O)[C@H]6O)CC[C@]5(C)[C@H]4CC[C@]3(C)[C@H]1[C@@H]2C` [α-tomatine], the “introduction of a hydroxy group to position 23 of the substrate (reaction product)” value in the test on S123DOX is “a product to which a hydroxy group was introduced at position 23 was obtained”; in the test on St23DOX, “a product to which a hydroxy group was introduced at position 23 can be obtained”; in the test with Sc23DOX, “a product to which a hydroxy group was introduced at position 23 was obtained”.

`C[C@H]1CC[C@@H]2[C@@H](C)[C@H]3[C@H](C[C@H]4[C@@H]5CC=C6C[C@@H](O[C@@H]7O[C@H](CO)[C@H](O)[C@H](O[C@@H]8O[C@H](CO)[C@@H](O)[C@H](O)[C@H]8O)[C@H]7O[C@@H]7O[C@@H](C)[C@H](O)[C@@H](O)[C@H]7O)CC[C@]6(C)[C@H]5CC[C@]34C)N2C1` [α-solanine]: the “introduction of a hydroxy group to position 23 of the substrate (reaction product)” value in the test with S123DOX and in the test on Sc23DOX was “a new reaction product was not obtained” each time.

For the compound 23 hydroxy tomatine, the “acetylation” value with S123ACT, with St23ACT and with Sc23ACT was “a product to which an acetoxy group was introduced at position 23 was obtained” each time.

The record behind these values is patent US20240209389A1, “PLANT HAVING ENHANCED RESISTANCE AGAINST COLORADO POTATO BEETLE AND METHOD FOR PRODUCING SAME, AND METHOD FOR EVALUATING RESISTANCE AGAINST COLORADO POTATO BEETLE IN PLANT” (KANEKA CORPORATION, priority 2020, published 2024).
